The values below come from article PMC9574513 (The Journal of Biological Chemistry, 2022).

Where a chain is given by its changes, count along the chain named.

One assay addresses T1, PtKCS4 (Populus trichocarpa, UniProt U7E0F5).
T1 sequence (U7E0F5 1-524): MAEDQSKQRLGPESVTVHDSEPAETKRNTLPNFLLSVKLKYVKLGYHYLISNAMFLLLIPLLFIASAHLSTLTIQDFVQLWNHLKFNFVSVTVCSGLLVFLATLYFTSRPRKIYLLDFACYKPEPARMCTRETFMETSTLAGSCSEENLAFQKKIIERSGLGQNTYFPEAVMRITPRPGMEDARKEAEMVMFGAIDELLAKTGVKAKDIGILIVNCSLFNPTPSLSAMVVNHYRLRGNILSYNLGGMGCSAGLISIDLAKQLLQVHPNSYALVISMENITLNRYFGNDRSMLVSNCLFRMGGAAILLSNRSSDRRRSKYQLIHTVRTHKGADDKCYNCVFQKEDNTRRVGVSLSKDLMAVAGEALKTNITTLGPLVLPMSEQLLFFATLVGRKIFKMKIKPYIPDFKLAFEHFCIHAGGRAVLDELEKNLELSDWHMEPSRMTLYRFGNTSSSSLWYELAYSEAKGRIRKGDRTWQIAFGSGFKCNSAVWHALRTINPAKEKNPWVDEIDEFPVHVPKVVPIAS
The format is cell-based. The settings on record: inhibition; 30 °C, 4 days, yeast culture.

In a further assay the target is T2, PtKCS2 (Populus trichocarpa, UniProt A0A2K1YQQ5).
T2 sequence (A0A2K1YQQ5 1-524): T1 sequence (U7E0F5 1-524) with C94S, T137K, T139V, C144F, R283C
The class given is cell-based. The settings on record: inhibition; 30 °C, 4 days, yeast culture.

On to `CCc1cccc(CC)c1N(COC)C(=O)CCl` [alachlor], for which the “proportion of total VLC-FAMEs vs uninhibited control at 2 μM” value is “whereas alachlor and anilofos slightly reduced activity” on PtKCS4; “whereas alachlor and anilofos slightly reduced activity” at PtKCS2.

In the case of `CC(C)N(C(=O)COc1nnc(C(F)(F)F)s1)c1ccc(F)cc1` [flufenacet], the “proportion of total VLC-FAMEs vs uninhibited control at 2 μM” value on PtKCS4 was “Flufenacet and fentrazamide had the greatest effect on reducing VLCFA elongation in all three KCSs”; on PtKCS2, “Flufenacet and fentrazamide had the greatest effect on reducing VLCFA elongation in all three KCSs”.
